Assay results as given in the kinase profiling compilation of Christmann-Franck et al. (2016).

Columns and labels:
[1] = target: SRPK1 (human) (UniProt Q96SB4); experiment: KINOMEscan competition binding; conditions: compound 10.0 µM
[2] = system: ABL1 (human), P00519 [M351T]; experiment: KINOMEscan competition binding; conditions: compound 10.0 µM
[3] = target: AURKA (human) (UniProt O14965); experiment: KINOMEscan competition binding; conditions: compound 10.0 µM
[4] = target: ULK2 (human) (UniProt Q8IYT8); experiment: KINOMEscan competition binding; conditions: compound 10.0 µM
[5] = target: EPHA1 (human) (UniProt P21709); experiment: KINOMEscan competition binding; conditions: compound 10.0 µM
[6] = target: DCLK2 (human) (UniProt Q8N568); experiment: KINOMEscan competition binding; conditions: compound 10.0 µM
[7] = target: CRK2 (P.falciparum) (UniProt P61075); experiment: KINOMEscan competition binding; conditions: compound 10.0 µM
[8] = target: STK16 (human) (UniProt O75716); experiment: KINOMEscan competition binding; conditions: compound 10.0 µM
[9] = target: TYK2 JH2 pseudokinase (human) (UniProt P29597); experiment: KINOMEscan competition binding; conditions: compound 10.0 µM
Sequence of TYK2 JH2 pseudokinase (human) (P29597 whole entry, looked up): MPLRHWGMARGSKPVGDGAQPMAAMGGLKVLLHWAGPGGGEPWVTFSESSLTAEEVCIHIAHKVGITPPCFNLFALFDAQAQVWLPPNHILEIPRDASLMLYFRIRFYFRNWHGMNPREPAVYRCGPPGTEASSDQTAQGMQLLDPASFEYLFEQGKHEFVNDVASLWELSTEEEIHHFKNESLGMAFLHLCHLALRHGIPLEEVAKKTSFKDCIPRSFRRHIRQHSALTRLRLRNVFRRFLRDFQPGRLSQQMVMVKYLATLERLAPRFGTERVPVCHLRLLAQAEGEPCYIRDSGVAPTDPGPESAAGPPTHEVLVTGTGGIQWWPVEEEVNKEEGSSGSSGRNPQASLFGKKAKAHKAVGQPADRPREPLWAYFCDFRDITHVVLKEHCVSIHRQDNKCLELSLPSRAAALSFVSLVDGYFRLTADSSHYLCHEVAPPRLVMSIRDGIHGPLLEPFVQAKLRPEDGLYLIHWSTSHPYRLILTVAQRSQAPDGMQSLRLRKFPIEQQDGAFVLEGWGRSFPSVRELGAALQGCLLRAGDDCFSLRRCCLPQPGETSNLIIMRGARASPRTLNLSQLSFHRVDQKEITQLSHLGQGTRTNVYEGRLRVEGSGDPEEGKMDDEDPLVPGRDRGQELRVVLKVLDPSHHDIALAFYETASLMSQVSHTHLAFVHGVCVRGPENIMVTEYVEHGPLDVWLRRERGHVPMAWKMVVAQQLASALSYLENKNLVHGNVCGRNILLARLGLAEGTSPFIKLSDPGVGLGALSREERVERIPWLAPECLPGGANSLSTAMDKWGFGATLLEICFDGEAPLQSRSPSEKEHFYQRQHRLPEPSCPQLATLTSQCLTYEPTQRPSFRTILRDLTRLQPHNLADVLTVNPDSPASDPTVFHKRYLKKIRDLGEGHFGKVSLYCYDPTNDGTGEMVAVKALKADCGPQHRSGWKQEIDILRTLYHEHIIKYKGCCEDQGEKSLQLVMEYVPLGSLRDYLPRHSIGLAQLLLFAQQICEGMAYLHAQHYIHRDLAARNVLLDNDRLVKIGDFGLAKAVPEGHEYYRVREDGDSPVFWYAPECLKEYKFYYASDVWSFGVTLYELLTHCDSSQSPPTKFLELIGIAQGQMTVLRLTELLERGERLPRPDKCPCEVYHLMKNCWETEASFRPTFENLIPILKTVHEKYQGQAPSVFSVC

[10] = target: MST1R (human) (UniProt Q04912); experiment: KINOMEscan competition binding; conditions: compound 10.0 µM
[11] = target: MYO3A (human) (UniProt Q8NEV4); experiment: KINOMEscan competition binding; conditions: compound 10.0 µM
[12] = target: TXK (human) (UniProt P42681); experiment: KINOMEscan competition binding; conditions: compound 10.0 µM
[13] = target: CDK8 (human) (UniProt P49336); experiment: KINOMEscan competition binding; conditions: compound 10.0 µM
[14] = target: NEK4 (human) (UniProt P51957); experiment: KINOMEscan competition binding; conditions: compound 10.0 µM
[15] = target: TSSK1B (human) (UniProt Q9BXA7); experiment: KINOMEscan competition binding; conditions: compound 10.0 µM
[16] = target: SRMS (human) (UniProt Q9H3Y6); experiment: KINOMEscan competition binding; conditions: compound 10.0 µM
[17] = target: MAST1 (human) (UniProt Q9Y2H9); experiment: KINOMEscan competition binding; conditions: compound 10.0 µM
[18] = target: CSNK1E (human) (UniProt P49674); experiment: KINOMEscan competition binding; conditions: compound 10.0 µM
[19] = target: SRPK2 (human) (UniProt P78362); experiment: KINOMEscan competition binding; conditions: compound 10.0 µM
[20] = target: ACVR1B (human) (UniProt P36896); experiment: KINOMEscan competition binding; conditions: compound 10.0 µM
[21] = target: CDK7 (human) (UniProt P50613); experiment: KINOMEscan competition binding; conditions: compound 10.0 µM
[22] = target: FGFR1 (human) (UniProt P11362); experiment: KINOMEscan competition binding; conditions: compound 10.0 µM
[23] = system: PIK3CA (human), P42336 [M1043I]; experiment: KINOMEscan competition binding; conditions: compound 10.0 µM
[24] = target: EPHB6 (human) (UniProt O15197); experiment: KINOMEscan competition binding; conditions: compound 10.0 µM
[25] = target: STK32C (human) (UniProt Q86UX6); experiment: KINOMEscan competition binding; conditions: compound 10.0 µM
[26] = target: FES (human) (UniProt P07332); experiment: KINOMEscan competition binding; conditions: compound 10.0 µM
[27] = target: DSTYK (human) (UniProt Q6XUX3); experiment: KINOMEscan competition binding; conditions: compound 10.0 µM
[28] = target: MYLK (human) (UniProt Q15746); experiment: KINOMEscan competition binding; conditions: compound 10.0 µM
[29] = target: LRRK2 (human) (UniProt Q5S007); experiment: KINOMEscan competition binding; conditions: compound 10.0 µM
[30] = target: CASK (human) (UniProt O14936); experiment: KINOMEscan competition binding; conditions: compound 10.0 µM
[31] = target: GRK4 (human) (UniProt P32298); experiment: KINOMEscan competition binding; conditions: compound 10.0 µM
[32] = target: CAMK2D (human) (UniProt Q13557); experiment: KINOMEscan competition binding; conditions: compound 10.0 µM
[33] = target: STK3 (human) (UniProt Q13188)
Sequence of STK3 (human) (Q13188 whole entry, looked up): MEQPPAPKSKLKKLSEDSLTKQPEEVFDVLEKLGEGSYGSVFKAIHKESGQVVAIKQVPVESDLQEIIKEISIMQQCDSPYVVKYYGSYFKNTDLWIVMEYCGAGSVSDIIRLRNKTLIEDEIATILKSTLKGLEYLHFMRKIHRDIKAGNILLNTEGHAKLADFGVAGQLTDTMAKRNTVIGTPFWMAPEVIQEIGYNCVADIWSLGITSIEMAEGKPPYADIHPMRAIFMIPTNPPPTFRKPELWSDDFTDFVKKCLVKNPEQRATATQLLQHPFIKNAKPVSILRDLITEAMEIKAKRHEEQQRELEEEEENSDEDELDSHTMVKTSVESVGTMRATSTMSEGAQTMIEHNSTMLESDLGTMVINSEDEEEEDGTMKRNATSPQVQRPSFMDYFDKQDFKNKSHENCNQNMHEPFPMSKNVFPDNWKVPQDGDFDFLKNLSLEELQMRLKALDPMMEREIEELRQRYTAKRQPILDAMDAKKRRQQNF

[34] = target: MAPK9 (human) (UniProt P45984)
Sequence of MAPK9 (human) (P45984 whole entry, looked up): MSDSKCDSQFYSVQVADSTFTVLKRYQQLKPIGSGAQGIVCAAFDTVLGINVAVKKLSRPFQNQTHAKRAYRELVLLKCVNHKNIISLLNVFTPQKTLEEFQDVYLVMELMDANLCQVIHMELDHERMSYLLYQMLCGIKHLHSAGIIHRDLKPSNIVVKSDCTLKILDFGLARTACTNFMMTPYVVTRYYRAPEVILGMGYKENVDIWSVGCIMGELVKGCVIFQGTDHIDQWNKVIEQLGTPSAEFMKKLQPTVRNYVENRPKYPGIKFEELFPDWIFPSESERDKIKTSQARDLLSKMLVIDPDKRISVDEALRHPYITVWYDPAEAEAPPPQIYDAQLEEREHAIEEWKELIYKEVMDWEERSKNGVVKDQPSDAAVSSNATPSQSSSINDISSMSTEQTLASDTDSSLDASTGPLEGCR

[35] = target: DYRK3 (human) (UniProt O43781)
Sequence of DYRK3 (human) (O43781 whole entry, looked up): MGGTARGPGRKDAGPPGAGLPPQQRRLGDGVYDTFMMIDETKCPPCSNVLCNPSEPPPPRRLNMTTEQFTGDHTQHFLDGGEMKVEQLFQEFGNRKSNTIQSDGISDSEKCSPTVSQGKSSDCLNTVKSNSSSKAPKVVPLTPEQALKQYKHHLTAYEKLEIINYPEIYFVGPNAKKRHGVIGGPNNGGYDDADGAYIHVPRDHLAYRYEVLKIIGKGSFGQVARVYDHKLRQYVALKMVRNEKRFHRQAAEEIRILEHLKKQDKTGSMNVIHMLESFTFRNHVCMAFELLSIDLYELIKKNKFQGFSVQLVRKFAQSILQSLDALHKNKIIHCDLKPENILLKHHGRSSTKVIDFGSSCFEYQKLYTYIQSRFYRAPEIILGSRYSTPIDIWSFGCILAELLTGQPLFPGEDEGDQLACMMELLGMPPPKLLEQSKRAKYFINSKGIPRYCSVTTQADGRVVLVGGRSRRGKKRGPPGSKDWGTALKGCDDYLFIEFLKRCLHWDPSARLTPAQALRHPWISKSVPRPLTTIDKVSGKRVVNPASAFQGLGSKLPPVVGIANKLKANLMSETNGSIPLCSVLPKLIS

[36] = target: PIM1 (human) (UniProt P11309)
Sequence of PIM1 (human) (P11309 whole entry, looked up): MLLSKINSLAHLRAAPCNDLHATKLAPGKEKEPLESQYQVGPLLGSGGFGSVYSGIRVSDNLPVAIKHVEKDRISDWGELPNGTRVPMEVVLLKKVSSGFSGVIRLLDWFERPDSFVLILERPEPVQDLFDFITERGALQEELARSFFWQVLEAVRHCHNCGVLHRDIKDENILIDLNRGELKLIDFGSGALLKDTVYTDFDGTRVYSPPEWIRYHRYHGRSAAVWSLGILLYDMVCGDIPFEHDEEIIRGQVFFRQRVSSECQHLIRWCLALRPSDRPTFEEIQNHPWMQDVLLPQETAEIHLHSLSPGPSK

[37] = target: MST4 (human) (UniProt Q9P289)
Sequence of MST4 (human) (Q9P289 whole entry, looked up): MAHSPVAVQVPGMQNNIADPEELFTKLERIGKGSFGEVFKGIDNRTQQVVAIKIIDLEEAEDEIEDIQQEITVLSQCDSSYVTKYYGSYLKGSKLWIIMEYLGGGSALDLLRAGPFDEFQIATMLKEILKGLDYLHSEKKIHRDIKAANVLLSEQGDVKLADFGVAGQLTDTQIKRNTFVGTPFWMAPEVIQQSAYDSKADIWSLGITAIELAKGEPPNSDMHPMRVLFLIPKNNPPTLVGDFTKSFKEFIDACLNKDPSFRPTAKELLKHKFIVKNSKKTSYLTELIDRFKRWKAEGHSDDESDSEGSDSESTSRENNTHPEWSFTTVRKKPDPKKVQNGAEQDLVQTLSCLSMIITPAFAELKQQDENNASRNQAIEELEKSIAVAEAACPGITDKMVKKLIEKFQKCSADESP

[38] = target: NEK6 (human) (UniProt Q9HC98)
Sequence of NEK6 (human) (Q9HC98 whole entry, looked up): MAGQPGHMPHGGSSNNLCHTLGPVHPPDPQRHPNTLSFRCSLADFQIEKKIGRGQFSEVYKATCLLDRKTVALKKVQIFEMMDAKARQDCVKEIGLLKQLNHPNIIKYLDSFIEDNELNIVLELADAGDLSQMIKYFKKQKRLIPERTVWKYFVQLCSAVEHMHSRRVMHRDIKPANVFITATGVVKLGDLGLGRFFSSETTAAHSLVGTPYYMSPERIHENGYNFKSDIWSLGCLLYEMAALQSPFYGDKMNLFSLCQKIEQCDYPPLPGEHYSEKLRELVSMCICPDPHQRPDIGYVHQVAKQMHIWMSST

[39] = target: TBK1 (human) (UniProt Q9UHD2)
Sequence of TBK1 (human) (Q9UHD2 whole entry, looked up): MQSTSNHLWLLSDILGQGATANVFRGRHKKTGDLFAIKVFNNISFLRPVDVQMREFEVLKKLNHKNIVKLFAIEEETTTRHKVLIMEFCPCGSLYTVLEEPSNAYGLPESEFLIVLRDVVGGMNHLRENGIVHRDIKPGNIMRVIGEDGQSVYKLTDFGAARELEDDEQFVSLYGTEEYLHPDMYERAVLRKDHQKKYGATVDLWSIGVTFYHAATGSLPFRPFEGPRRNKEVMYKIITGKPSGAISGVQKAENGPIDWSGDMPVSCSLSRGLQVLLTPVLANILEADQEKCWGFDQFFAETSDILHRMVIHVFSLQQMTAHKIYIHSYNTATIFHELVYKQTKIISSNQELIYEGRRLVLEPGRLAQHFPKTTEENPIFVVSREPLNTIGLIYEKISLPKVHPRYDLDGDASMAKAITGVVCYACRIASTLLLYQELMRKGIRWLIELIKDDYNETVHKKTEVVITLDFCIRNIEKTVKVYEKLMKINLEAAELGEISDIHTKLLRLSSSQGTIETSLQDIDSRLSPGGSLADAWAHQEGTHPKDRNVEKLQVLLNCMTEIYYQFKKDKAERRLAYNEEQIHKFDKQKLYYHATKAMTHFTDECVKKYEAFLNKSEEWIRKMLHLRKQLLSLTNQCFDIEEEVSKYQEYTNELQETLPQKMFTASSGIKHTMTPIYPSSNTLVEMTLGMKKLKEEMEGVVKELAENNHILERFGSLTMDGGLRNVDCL

[40] = target: MKNK2 (human) (UniProt Q9HBH9)
Sequence of MKNK2 (human) (Q9HBH9 whole entry, looked up): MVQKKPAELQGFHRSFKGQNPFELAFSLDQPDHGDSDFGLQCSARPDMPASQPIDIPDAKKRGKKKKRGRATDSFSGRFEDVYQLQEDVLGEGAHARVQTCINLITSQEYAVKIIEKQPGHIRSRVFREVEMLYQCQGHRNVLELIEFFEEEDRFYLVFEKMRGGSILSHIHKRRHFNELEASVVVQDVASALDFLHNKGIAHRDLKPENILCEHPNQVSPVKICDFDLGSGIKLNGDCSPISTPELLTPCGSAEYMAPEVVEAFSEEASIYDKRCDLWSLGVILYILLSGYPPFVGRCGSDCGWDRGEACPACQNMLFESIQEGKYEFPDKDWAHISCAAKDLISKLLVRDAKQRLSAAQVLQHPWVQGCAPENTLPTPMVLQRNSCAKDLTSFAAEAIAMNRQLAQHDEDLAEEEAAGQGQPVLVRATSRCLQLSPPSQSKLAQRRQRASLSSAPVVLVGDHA

`COC(=O)Nc1ccc(-c2nc(N3CCOCC3)c3cnn(C4CCN(C(=O)OC)CC4)c3n2)cc1` was tested, and the kinase still bound, per cent of control [1] was 100%, the kinase still bound, per cent of control [2] was 100% and the kinase still bound, per cent of control [3] was 85%. The kinase still bound, per cent of control [4] was 99%, the kinase still bound, per cent of control [5] was 100% and the kinase still bound, per cent of control [6] was 95%. For the same compound, the kinase still bound, per cent of control [7] was 95%, the kinase still bound, per cent of control [8] was 77% and the kinase still bound, per cent of control [9] was 78%. For the same compound, the kinase still bound, per cent of control [10] was 82%, the kinase still bound, per cent of control [11] was 100% and the kinase still bound, per cent of control [12] was 92%. It also gave a per cent of control [13] of 100%, a kinase still bound, per cent of control [14] of 90% and a kinase still bound, per cent of control [15] of 100%. For the same compound, the kinase still bound, per cent of control [16] was 78%, the kinase still bound, per cent of control [17] was 81% and the kinase still bound, per cent of control [18] was 72%. For the same compound, the kinase still bound, per cent of control [19] was 100%, the kinase still bound, per cent of control [20] was 100% and the per cent of control [21] was 67%. The kinase still bound, per cent of control [22] was 100%, the kinase still bound, per cent of control [23] was 6.8% and the kinase still bound, per cent of control [24] was 97%. The kinase still bound, per cent of control [25] was 89%, the kinase still bound, per cent of control [26] was 100% and the kinase still bound, per cent of control [27] was 100%. The per cent of control [28] was 81%, the kinase still bound, per cent of control [29] was 91% and the kinase still bound, per cent of control [30] was 100%. For the same compound, the kinase still bound, per cent of control [31] was 100%, the kinase still bound, per cent of control [32] was 100% and the per cent of control ([33]; compound 1.0 µM) was 85%. For the same compound, the per cent of control ([33]; compound 10.0 µM) was 96%, the per cent of control ([34]; compound 1.0 µM) was 92% and the per cent of control ([34]; compound 10.0 µM) was 89%. For the same compound, the per cent of control ([35]; compound 1.0 µM) was 84%, the per cent of control ([35]; compound 10.0 µM) was 77% and the per cent of control ([36]; compound 1.0 µM) was 117%. For the same compound, the per cent of control ([36]; compound 10.0 µM) was 103%, the per cent of control ([37]; compound 1.0 µM) was 88% and the per cent of control ([37]; compound 10.0 µM) was 82%. For the same compound, the per cent of control ([38]; compound 1.0 µM) was 96%, the per cent of control ([38]; compound 10.0 µM) was 87% and the per cent of control ([39]; compound 1.0 µM) was 96%. It also gave a per cent of control ([39]; compound 10.0 µM) of 94%, a per cent of control ([40]; compound 1.0 µM) of 115% and a per cent of control ([40]; compound 10.0 µM) of 93%.
